Values quoted from earlier work in paper PMC5036784 (Biophysics, 2011).
Where two headings read alike, the source gives them in different places.

Conditions: for rate constant of membrane binding kFB / rate constant of membrane dissociation kBF: 19F NMR; for time span of the binding and dissociation: timescale

rate constant of membrane binding kFB (ref [3]) [s⁻¹] | time span of the binding and dissociation (ref [3]) | SMILES | rate constant of membrane dissociation kBF (ref [3]) [s⁻¹] | rate constant of membrane binding kFB (303K, ref [4]) [s⁻¹] | rate constant of membrane dissociation kBF (303K, ref [4]) [s⁻¹] | binding free energy ΔG (ref [4]) [kcal/mol] | time span of the binding and dissociation (ref [4])
0.2 | 10^−1–10^0 s | O=c1[nH]cc(F)c(=O)[nH]1 [5FU, 5-fluoro-1H-pyrimidine-2,4-dione] | 4.1 | – | – | – | –
– | – | Oc1ccc(C(c2ccc(O)cc2)(C(F)(F)F)C(F)(F)F)cc1 [FBPA, fluorinated bisphenol A] | – | 22 to 280 | 68 to 107 | -4.78 | 10^−3–10^−2 s
